Experimental data: patent US20140163012A1, “PYRIDO-/AZEPINO-BENZOFURAN AND PYRIDO-/AZEPINO-BENZOTHIOPHENE MCH-1 ANTAGONISTS, METHODS OF MAKING, AND USE THEREOF” (Albany Molecular Research, Inc., priority 2012, published 2014)

Experiments:
human MCH-1 receptor = human MCH-1 receptor (Homo sapiens, UniProt Q99705); test: Binding assay for human melanin-concentrating hormone (MCH-1) receptor, radioligand displacement on CHO-K1 cell membranes; conditions: for inhibition at 1 µM: read-out: MCH1 % inhibition @ 1 uM
Chain of human MCH-1 receptor (Q99705 whole entry): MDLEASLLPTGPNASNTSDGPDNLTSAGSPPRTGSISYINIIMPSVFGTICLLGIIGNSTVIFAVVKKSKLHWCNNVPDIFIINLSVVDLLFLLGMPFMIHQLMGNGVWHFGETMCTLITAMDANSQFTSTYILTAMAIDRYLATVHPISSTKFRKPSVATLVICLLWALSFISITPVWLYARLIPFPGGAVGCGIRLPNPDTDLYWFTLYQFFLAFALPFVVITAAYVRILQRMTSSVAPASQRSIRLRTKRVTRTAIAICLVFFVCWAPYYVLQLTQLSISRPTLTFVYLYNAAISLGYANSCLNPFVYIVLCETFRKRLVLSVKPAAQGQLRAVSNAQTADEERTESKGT
Protocol: Nonspecific binding was determined in the presence of 50 μM 1-(5-(4-cyanophenyl)bicyclo[3.1.0]hexan-2-yl)-3-(4-fluoro-3-(trifluoromethyl)phenyl)-1-(3-(4-methylpiperazin-1-yl)propyl)urea. […] The filters were counted for radioactivity in a liquid scintillation counter (Tri-Carb 2100TR, Packard) using a scintillation cocktail (Ultima Gold MV, Perkin Elmer).
The results are expressed as a percent inhibition of the control radioligand specific binding. The IC50 value (concentration causing a half-maximal inhibition of control specific binding) and Hill coefficient (nH) were determined by non-linear regression analysis of the competition curve using Hill equation curve fitting.

| Compound | melting point | Ki (human MCH-1 receptor) | inhibition at 1 µM (human MCH-1 receptor) |
| --- | --- | --- | --- |
| Cl.O=c1cc(OCc2ccccc2)ccn1-c1ccc2sc3c(c2c1)CCNC3 [Example 65, 4-Benzyloxy-1-(1,2,3,4-tetrahydrobenzo[4,5]thieno[2,3-c]pyridin-6-yl)pyridin-2(1H)-one hydrochloride] | 170 °C | 360 nM |  |
| Cl.O=c1cc(OCc2ccc(F)cn2)ccn1-c1ccc2sc3c(c2c1)CCNC3 [Example 66, 4-((5-Fluoropyridin-2-yl)methoxy)-1-(1,2,3,4-tetrahydrobenzo[4,5]thieno[2,3-c]pyridin-6-yl)pyridin-2(1H)-one hydrochloride] | 278 to 280 °C |  | 34% |
| Cl.O=c1cc(OCc2ccccc2)ccn1-c1ccc2sc3c(c2c1)CNCC3 [Example 67, 4-Benzyloxy-1-(1,2,3,4-tetrahydrobenzo[4,5]thieno[3,2-c]pyridin-8-yl)pyridin-2(1H)-one hydrochloride] | 245 to 247 °C |  | 31% |
| Cl.O=c1cc(OCc2ccc(F)cn2)ccn1-c1ccc2sc3c(c2c1)CNCC3 [Example 68, 4-(5-Fluoropyridin-2-yl)methoxy-1-(1,2,3,4-tetrahydrobenzo[4,5]thieno[3,2-c]pyridin-8-yl)pyridin-2(1H)-one hydrochloride] | 165 to 167 °C |  | 13% |
| Cl.O=c1cc(OCc2ccc(F)cn2)ccn1-c1ccc2sc3c(c2c1)CCNCC3 [Example 69, 4-(5-Fluoropyridin-2-yl)methoxy-1-(2,3,4,5-tetrahydro-1H-benzo[4,5]thieno[2,3-d]azepin-9-yl)pyridin-2(1H)-one hydrochloride] | 228 to 230 °C |  | 69% |
| Cl.O=C1CN(CCc2ccc(F)cn2)CCN1c1ccc2c3c(oc2c1)CCNC3 [Example 70, 4-(2-(5-Fluoropyridin-2-yl)ethyl)-1-(1,2,3,4-tetrahydrobenzofuro[3,2-c]pyridin-7-yl)piperazin-2-one hydrochloride] | 203 to 209 °C |  | 66% |
| Cl.O=C1CN(CCc2ccc(Cl)cn2)CCN1c1ccc2c3c(oc2c1)CCNC3 [Example 91, 4-(2-(5-Chloropyridin-2-yl)ethyl)-1-(1,2,3,4-tetrahydrobenzofuro[3,2-c]pyridin-7-yl)piperazin-2-one hydrochloride] | 220 to 223 °C | 84 nM |  |
| Cl.O=c1cc(CCc2ccccc2)ccn1-c1ccc2c3c(oc2c1)CCNC3 [Example 104, 4-Phenethyl-1-(1,2,3,4-tetrahydrobenzofuro[3,2-c]pyridin-7-yl)pyridin-2(1H)-one hydrochloride] | 283 to 289 °C | 6.6 nM |  |
| Cl.O=c1cc(OCc2ccccc2)ccn1-c1ccc2sc3c(c2c1)CNCCC3 [Example 118, 4-Benzyloxy-1-(2,3,4,5-tetrahydro-1H-benzo[4,5]thieno[3,2-c]azepin-9-yl)pyridin-2(1H)-one hydrochloride] | 176 to 178 °C |  | 7.7% |
| Cl.O=c1cc(OCc2ccc(F)cn2)ccn1-c1ccc2sc3c(c2c1)CNCCC3 [Example 119, 4-((5-Fluoropyridin-2-yl)methoxy)-1-(2,3,4,5-tetrahydro-1H-benzo[4,5]thieno[3,2-c]azepin-9-yl)pyridin-2(1H)-one hydrochloride] | 170 to 172 °C |  | -2.6% |
| Cl.O=c1cc(OCc2ccc(F)cn2)ccn1-c1ccc2sc3c(c2c1)CCCNC3 [Example 120, 4-(5-Fluoropyridin-2-ylmethoxy)-1-(2,3,4,5-tetrahydro-1H-benzo[4,5]thieno[2,3-c]azepin-7-yl)pyridin-2(1H)-one hydrochloride] | 180 to 182 °C |  | 1.3% |

Other lines, results leading:

| melting point | Ki (human MCH-1 receptor) | inhibition at 1 µM (human MCH-1 receptor) | Compound |
| --- | --- | --- | --- |
| 268 to 269 °C | 36 nM |  | Cl.O=c1cc(OCc2ccc(F)cn2)cnn1-c1ccc2c3c(oc2c1)CCNC3 [Example 50, 5-((5-Fluoropyridin-2-yl)methoxy)-2-(1,2,3,4-tetrahydrobenzofuro[3,2-c]pyridin-7-yl)pyridazin-3(2H)-one hydrochloride] |
| 227 to 233 °C | 145 nM |  | Cc1ccc(COc2ccn(-c3ccc4c5c(oc4c3)CCNC5)c(=O)c2)cn1.Cl [Example 51, 4-((6-Methylpyridin-3-yl)methoxy)-1-(1,2,3,4-tetrahydrobenzofuro[3,2-c]pyridin-7-yl)pyridin-2(1H)-one hydrochloride] |
| 278 to 280 °C | 73 nM |  | Cl.O=c1cc(OCc2ccc(C(F)(F)F)nc2)ccn1-c1ccc2c3c(oc2c1)CCNC3 [Example 52, 1-(1,2,3,4-Tetrahydrobenzofuro[3,2-c]pyridin-7-yl)-4-((6-(trifluoromethyl)pyridin-3-yl)methoxy)pyridin-2(1H)-one hydrochloride] |
| > 300 °C | 7.5 nM |  | Cl.O=c1cc(-c2ccc(C(F)(F)F)cc2)ccn1-c1ccc2c3c(oc2c1)CCNC3 [Example 71, 1-(1,2,3,4-Tetrahydrobenzofuro[3,2-c]pyridin-7-yl)-4-(4-(trifluoromethyl)phenyl)pyridin-2(1H)-one hydrochloride] |
| > 300 °C |  | 41% | Cl.O=c1cc(-c2ccc(C(F)(F)F)nn2)ccn1-c1ccc2c3c(oc2c1)CCNC3 [Example 88, 1-(1,2,3,4-Tetrahydrobenzofuro[3,2-c]pyridin-7-yl)-4-(6-(trifluoromethyl)pyridazin-3-yl)pyridin-2(1H)-one hydrochloride] |
| 155 to 160 °C | 20 nM |  | Cl.O=c1nc(CCc2ccc(Cl)cn2)ccn1-c1ccc2c3c(oc2c1)CCNC3 [Example 101, 4-(2-(5-Chloropyridin-2-yl)ethyl)-1-(1,2,3,4-tetrahydrobenzofuro[3,2-c]pyridin-7-yl)pyrimidin-2(1H)-one hydrochloride] |
| 165 to 169 °C | 29 nM |  | Cl.O=c1cc(CCc2ccc(F)cn2)ccn1-c1ccc2c3c(oc2c1)CCNC3 [Example 102, 4-(2-(5-Fluoropyridin-2-yl)ethyl)-1-(1,2,3,4-tetrahydrobenzofuro[3,2-c]pyridin-7-yl)pyridin-2(1H)-one hydrochloride] |
| 285 to 288 °C | 12 nM |  | Cl.O=c1cc(CCc2ccc(Cl)cn2)ccn1-c1ccc2c3c(oc2c1)CCNC3 [Example 105, 4-(2-(5-Chloropyridin-2-yl)ethyl)-1-(1,2,3,4-tetrahydrobenzofuro[3,2-c]pyridin-7-yl)pyridin-2(1H)-one hydrochloride] |
| 282 to 284 °C | 16 nM |  | COc1ccc(-c2ccn(-c3ccc4c5c(oc4c3)CCNC5)c(=O)c2)c(F)c1.Cl [Example 111, 4-(2-Fluoro-4-methoxyphenyl)-1-(1,2,3,4-tetrahydrobenzofuro[3,2-c]pyridin-7-yl)pyridin-2(1H)-one hydrochloride] |
| 294 to 297 °C | 6.9 nM |  | COc1ccc(-c2ccn(-c3ccc4c5c(oc4c3)CCNC5)c(=O)c2)c(Cl)c1.Cl [Example 112, 4-(2-Chloro-4-methoxyphenyl)-1-(1,2,3,4-tetrahydrobenzofuro[3,2-c]pyridin-7-yl)pyridin-2(1H)-one hydrochloride] |
| 289 to 291 °C | 20 nM |  | Cl.O=c1cc(OCc2ccc(C(F)(F)F)nn2)ccn1-c1ccc2c3c(oc2c1)CCNC3 [Example 113, 1-(1,2,3,4-Tetrahydrobenzofuro[3,2-c]pyridin-7-yl)-4-((6-(trifluoromethyl)pyridazin-3-yl)methoxy)pyridin-2(1H)-one hydrochloride] |
| 299 to 301 °C | 7.3 nM |  | Cc1cc(OC(F)(F)F)ccc1-c1ccn(-c2ccc3c4c(oc3c2)CCNC4)c(=O)c1.Cl [Example 114, 4-(2-Methyl-4-(trifluoromethoxy)phenyl)-1-(1,2,3,4-tetrahydrobenzofuro[3,2-c]pyridin-7-yl)pyridin-2(1H)-one hydrochloride] |
